According to PMC7559897, “Designed Antimicrobial Peptides Against Trauma-Related Cutaneous Invasive Fungal Wound Infections” (Journal of Fungi, 2020):
In brackets after ≈: the same amount, converted by molar mass. Square brackets hold non-standard residues; d marks the D form. Peptide text beside a SMILES is read from it. Orn = NCCC[C@H](N)C(=O)O

Columns and labels:
P. aeruginosa 6186 = format: cell-based, Pseudomonas aeruginosa; conditions: 6186, 24 h
Method: (§1) Assays were performed by Trideum Biosciences (Frederick, MD, USA). Isolates were thawed from −80 °C storage and sub-cultured on trypticase soy agar plates at 37 °C prior to experimentation. A single colony was aseptically picked from the agar plate and released in 30 mL trypticase soy broth and incubated overnight at 37 °C incubator. Following which the bacterial culture was diluted to approximately 10^6 colony forming units (CFU)/mL using 2X cation adjusted Mueller–Hinton broth and added to the dAMP solutions (0, 2, 4, 8, 16, 32, 64, and 128 μg/mL) which had been formulated in water at 256 μg/mL and then serially diluted in media on 96-well pates. For fungal evaluation, potato dextrose broth and potato dextrose agar plates were used. The treated cultures were then incubated for 24 h at 37 °C and pathogen growth was measured by absorbance at 600 nm. Four replicas were included for each dAMP concentration. Each MIC was assigned to the lowest test agent concentration resulting in at least three out of four wells showing no growth based on an optical density (OD) reading of <0.1.

P. aeruginosa ATCC 27853 = format: cell-based, Pseudomonas aeruginosa; conditions: ATCC 27853, 24 h
Method: as §1

P. aeruginosa ATCC 19660 = format: cell-based, Pseudomonas aeruginosa; conditions: ATCC 19660, 24 h
Method: as §1

A. baumannii 6838 = format: cell-based, Acinetobacter baumannii; conditions: 6838, 24 h
Method: as §1

A. baumannii 6043 = format: cell-based, Acinetobacter baumannii; conditions: 6043, 24 h
Method: as §1

A. baumannii ATCC 17978 = format: cell-based, Acinetobacter baumannii; conditions: ATCC 17978, 24 h
Method: as §1

[1] = system: Absidia corymbifera NRRL 6251; format: cell-based; conditions: NRRL 6251, 24 h
Method: as §1

[2] = system: Aspergillus flavus MYA-3651; format: cell-based; conditions: 24 h
Method: as §1

[3] = system: Aspergillus fumigatus 9651; format: cell-based; conditions: 9651, 24 h
Method: as §1

[4] = system: Aspergillus fumigatus 9648; format: cell-based; conditions: 9648, 24 h
Method: as §1

Candida albicans Y-6359 = format: cell-based; conditions: Y-6359, 24 h
Method: as §1

[5] = system: Candida parapsilosis Y-1763; format: cell-based; conditions: Y-1763, 24 h
Method: as §1

Candida krusei Y-27803 = format: cell-based; conditions: Y-27803, 24 h
Method: as §1

[6] = system: Fusarium solani NRRL 28548; format: cell-based; conditions: NRRL 28548, 24 h
Method: as §1

E. cloacae 6054 = format: cell-based; conditions: 6054, 24 h
Method: as §1

[7] = system: Aspergillus flavus MYA-1004; format: cell-based; conditions: 24 h
Method: as §1

Candida krusei Y-27825 = format: cell-based; conditions: Y-27825, 24 h
Method: as §1

S. epidermis ATCC 51625 = format: cell-based; conditions: ATCC 51625, 24 h
Method: as §1

[8] = system: Candida parapsilosis Y-1761; format: cell-based; conditions: Y-1761, 24 h
Method: as §1

[9] = system: Mucor circinelloides NRRL 3631; format: cell-based; conditions: NRRL 3631, 24 h
Method: as §1

Candida albicans Y-326 = format: cell-based; conditions: Y-326, 24 h
Method: as §1

E. cloacae 6053 = format: cell-based; conditions: 6053, 24 h
Method: as §1

K. pneumonia ATCC 10031 = format: cell-based, Klebsiella pneumoniae; conditions: ATCC 10031, 24 h
Method: as §1

K. pneumonia 6069 = format: cell-based, Klebsiella pneumoniae; conditions: 24 h
Method: as §1

MRSA 6313 = format: cell-based, Staphylococcus aureus; conditions: 6313, 24 h
Method: as §1

MRSA ATCC 33592 = format: cell-based, Staphylococcus aureus; conditions: ATCC 33592, 24 h
Method: as §1

S. aureus 6061 = format: cell-based, Staphylococcus aureus; conditions: 6061, 24 h
Method: as §1

MRSA 6381 = format: cell-based, Staphylococcus aureus; conditions: 6381, 24 h
Method: as §1

S. aureus B-767 = format: cell-based, Staphylococcus aureus; conditions: B-767, 24 h
Method: as §1

[10] = system: vulvovaginal candidiasis infection; conditions: rodent vulvovaginal candidiasis, after three days of daily treatment; cited from earlier work
From the text: The dAMPs RP504, RP554 and RP557 were thus tested for their ability to treat a rodent vulvovaginal candidiasis infection. […] A daily dose with a 2% concentration lowered the CFU/sample by more than 4 logs compared to the con ...

MIC against P. aeruginosa 6186 (P. aeruginosa 6186): 8 µg/mL (≈ 4.25 µM)
MIC against P. aeruginosa ATCC 27853 (P. aeruginosa ATCC 27853): 4 µg/mL (≈ 2.12 µM)
MIC against P. aeruginosa ATCC 19660 (P. aeruginosa ATCC 19660): 8 µg/mL (≈ 4.25 µM)
MIC against A. baumannii 6838 (A. baumannii 6838): 4 µg/mL (≈ 2.12 µM)
MIC against A. baumannii 6043 (A. baumannii 6043): 8 µg/mL (≈ 4.25 µM)
MIC against A. baumannii ATCC 17978 (A. baumannii ATCC 17978): 4 µg/mL (≈ 2.12 µM)
MIC against Absidia corymbifera NRRL 6251 [1]: 4 µg/mL (≈ 2.12 µM)
MIC against Aspergillus flavus MYA-3651 [2]: 32 µg/mL (≈ 17 µM)
MIC against Aspergillus fumigatus 9651 [3]: 32 µg/mL (≈ 17 µM)
MIC against Aspergillus fumigatus 9648 [4]: 64 µg/mL (≈ 34 µM)
MIC against Candida albicans Y-6359 (Candida albicans Y-6359): 32 µg/mL (≈ 17 µM)
MIC against Candida parapsilosis Y-1763 [5]: 8 µg/mL (≈ 4.25 µM)
MIC against Candida krusei Y-27803 (Candida krusei Y-27803): 16 µg/mL (≈ 8.49 µM)
MIC against Fusarium solani NRRL 28548 [6]: 2 µg/mL (≈ 1.06 µM)
MIC against E. cloacae 6054 (E. cloacae 6054): 2 µg/mL (≈ 1.06 µM)
MIC against Aspergillus flavus MYA-1004 [7]: 64 µg/mL (≈ 34 µM)
MIC against Candida krusei Y-27825 (Candida krusei Y-27825): 16 µg/mL (≈ 8.49 µM)
MIC against S. epidermis ATCC 51625 (S. epidermis ATCC 51625): 2 µg/mL (≈ 1.06 µM)
MIC against Candida parapsilosis Y-1761 [8]: 16 µg/mL (≈ 8.49 µM)
MIC against Mucor circinelloides NRRL 3631 [9]: 32 µg/mL (≈ 17 µM)
MIC against Candida albicans Y-326 (Candida albicans Y-326): 32 µg/mL (≈ 17 µM)
MIC against E. cloacae 6053 (E. cloacae 6053): 4 µg/mL (≈ 2.12 µM)
MIC against K. pneumonia ATCC 10031 (K. pneumonia ATCC 10031): 8 µg/mL (≈ 4.25 µM)
MIC against K. pneumonia 6069 (K. pneumonia 6069): 16 µg/mL (≈ 8.49 µM)
MIC against MRSA 6313 (MRSA 6313): 32 µg/mL (≈ 17 µM)
MIC against MRSA ATCC 33592 (MRSA ATCC 33592): 32 µg/mL (≈ 17 µM)
MIC against S. aureus 6061 (S. aureus 6061): 32 µg/mL (≈ 17 µM)
MIC against MRSA 6381 (MRSA 6381): 32 µg/mL (≈ 17 µM)
MIC against S. aureus B-767 (S. aureus B-767): 4 µg/mL (≈ 2.12 µM)
SMILES: CC[C@H](C)[C@H](NC(=O)[C@H](CCCN)NC(=O)[C@H](C)NC(=O)[C@H](CCCN)NC(=O)[C@H](CC(C)C)NC(=O)[C@H](CCCN)NC(=O)[C@@H](NC(=O)[C@H](CCCN)NC(=O)[C@@H](NC(=O)[C@H](CCCN)NC(=O)[C@H](C)NC(=O)[C@H](CCCN)NC(=O)[C@H](CC(C)C)NC(=O)[C@H](CCCN)NC(=O)[C@@H](N)Cc1ccccc1)[C@@H](C)CC)C(C)C)C(=O)N[C@@H](CCCN)C(=O)N[C@@H](CC(C)C)C(N)=O [RP554] (H-F[Orn]L[Orn]A[Orn]I[Orn]V[Orn]L[Orn]A[Orn]I[Orn]L-NH2)
reduction of CFU/tissue sample [10]: ≥ 2.5 logs
